US20110152243A1, “NOVEL THIENOPYRROLE COMPOUNDS” (ABBOTT LABORATORIES, priority 2009, published 2011)

molecular target: PKCθ (Homo sapiens, UniProt Q04759); assay: PKCθ enzyme data at 1 mM ATP; assay type: biochemical
Sequence (Q04759 whole entry): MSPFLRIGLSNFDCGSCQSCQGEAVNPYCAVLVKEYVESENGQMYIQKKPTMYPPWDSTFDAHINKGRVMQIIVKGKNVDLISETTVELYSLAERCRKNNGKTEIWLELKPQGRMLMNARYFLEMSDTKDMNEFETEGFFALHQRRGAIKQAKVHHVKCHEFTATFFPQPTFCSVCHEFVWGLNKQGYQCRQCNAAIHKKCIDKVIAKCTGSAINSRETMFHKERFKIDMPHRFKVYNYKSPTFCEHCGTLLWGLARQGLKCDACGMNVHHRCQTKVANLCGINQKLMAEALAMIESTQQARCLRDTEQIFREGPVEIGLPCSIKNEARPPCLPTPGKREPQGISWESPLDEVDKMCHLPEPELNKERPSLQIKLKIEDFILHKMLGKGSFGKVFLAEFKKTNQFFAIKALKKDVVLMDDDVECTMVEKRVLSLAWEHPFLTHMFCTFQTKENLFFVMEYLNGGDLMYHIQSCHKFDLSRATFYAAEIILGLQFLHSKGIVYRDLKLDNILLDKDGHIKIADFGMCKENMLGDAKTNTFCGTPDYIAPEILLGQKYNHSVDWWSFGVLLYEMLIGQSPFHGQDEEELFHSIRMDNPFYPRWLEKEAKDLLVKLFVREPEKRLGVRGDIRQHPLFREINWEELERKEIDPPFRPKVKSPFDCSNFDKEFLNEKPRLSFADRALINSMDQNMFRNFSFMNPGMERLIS

IC50 [nM] | Compound
< 100 | CN1CCN(c2nc(C3=C(c4c[nH]c5sccc45)C(=O)NC3=O)c3cccn3n2)CC1 [F.4.36]
100 to 500 | O=C1NC(=O)C(c2c[nH]c3ccsc23)=C1c1nc(N2CCN3C(=O)CCC3C2)nc2ccccc12 (stereo not drawn) [E.2.9]
< 100 | O=C1NC(=O)C(c2c[nH]c3sccc23)=C1c1nc(N2CCNCC2)nc2ccccc12 [G.1.5]
< 100 | O=C1NC(=O)C(c2c[nH]c3sccc23)=C1c1nc(N2CCN3CCC[C@H]3C2)nc2ccccc12 [E.1.44]
100 to 500 | Cc1cc2c(C3=C(c4nc(N5CCN(C)CC5)nc5ccccc45)C(=O)NC3=O)c[nH]c2s1 [F.1.3]
< 100 | CN1CCN(c2cc3ccc(F)cc3c(C3=C(c4c[nH]c5sccc45)C(=O)NC3=O)n2)CC1 [F.4.34]
< 100 | O=C1NC(=O)C(c2c[nH]c3ccsc23)=C1c1nc(N2CCN3CCC[C@H]3C2)nc2ccccc12 [E.2.4]
100 to 500 | CN(C)CC1CCN(c2nc(C3=C(c4c[nH]c5sccc45)C(=O)NC3=O)c3ccccc3n2)C1 (stereo not drawn) [E.1.28]
100 to 500 | N#CC1CCN(c2nc(C3=C(c4c[nH]c5sccc45)C(=O)NC3=O)c3ccccc3n2)CC1 [E.1.9]
500 to 1000 | O=C1CN(c2nc(C3=C(c4c[nH]c5sccc45)C(=O)NC3=O)c3ccccc3n2)CCN1 [E.1.7]
< 100 | O=C1NC(=O)C(c2c[nH]c3sccc23)=C1c1nc(N2CCC(CN3CCC3)CC2)nc2ccccc12 [E.1.17]
< 100 | CN1CCN(c2nc(C3=C(c4c[nH]c5ccsc45)C(=O)NC3=O)c3ccsc3n2)CC1 [F.3.4]
100 to 500 | Cc1nccn1CC1CCN(c2nc(C3=C(c4c[nH]c5sccc45)C(=O)NC3=O)c3ccccc3n2)CC1 [E.1.3]
< 100 | CN1CC(Cn2nc(C3=C(c4c[nH]c5sccc45)C(=O)NC3=O)c3ccccc32)C1 [F.4.22]
< 100 | Cc1nnc2n1CCN(c1nc(C3=C(c4c[nH]c5sccc45)C(=O)NC3=O)c3ccccc3n1)C2 [E.1.40]
500 to 1000 | CC(C1CCN(C)CC1)n1nc(C2=C(c3c[nH]c4sccc34)C(=O)NC2=O)c2ccccc21 (stereo not drawn) [F.4.35]

The next lines start with the compound.

Compound | IC50 [nM]
CN1CCN(c2nc(C3=C(c4c[nH]c5sccc45)C(=O)NC3=O)c3sccc3n2)CC1 [F.4.9] | < 100
CC(C1CCN(c2nc(C3=C(c4c[nH]c5sccc45)C(=O)NC3=O)c3ccccc3n2)CC1)N1CCOCC1 (stereo not drawn) [E.1.2] | 100 to 500
COc1ccc2nc(N3CCN(C)CC3)nc(C3=C(c4c[nH]c5sccc45)C(=O)NC3=O)c2c1 [F.4.14] | < 100
Cc1cccc2nc(N3CCN(C)CC3)nc(C3=C(c4c[nH]c5sccc45)C(=O)NC3=O)c12 [F.4.30] | < 100
CN1CCCC(Cn2nc(C3=C(c4c[nH]c5sccc45)C(=O)NC3=O)c3ccccc32)C1 (stereo not drawn) [F.4.28] | 100 to 500
O=C1NC(=O)C(c2c[nH]c3sccc23)=C1c1nc(N2CCC23CCNCC3)nc2ccccc12 [E.1.36] | < 100
O=C1NC(=O)C(c2c[nH]c3sccc23)=C1c1nc(N2CCN(CCO)CC2)nc2ccccc12 [E.1.19] | < 100
Cc1cccc2c(C3=C(c4c[nH]c5sccc45)C(=O)NC3=O)nc(N3CCN(C)CC3)nc12 [F.4.32] | 500 to 1000
O=C1NC(=O)C(c2c[nH]c3ccsc23)=C1c1nc(N2CCN3CCCC3C2)nc2ccccc12 (stereo not drawn) [E.2.10] | < 100
CC(C)(O)c1ncc2n1CCN(c1nc(C3=C(c4c[nH]c5sccc45)C(=O)NC3=O)c3ccccc3n1)C2 [E.1.49] | 100 to 500
CC1(N)CCN(c2nc(C3=C(c4c[nH]c5sccc45)C(=O)NC3=O)c3ccccc3n2)CC1 [G.1.10] | < 100
CN1CCC(Cn2nc(C3=C(c4c[nH]c5sccc45)C(=O)NC3=O)c3ccccc32)CC1 [F.4.6] | < 100
O=C1NC(=O)C(c2c[nH]c3sccc23)=C1c1nc(N2CCN3CCC[C@@H]3C2)nc2ccccc12 [E.1.1, (R)-3-(2-(Hexahydropyrrolo[1,2-a]pyrazin-2(1H)-yl)quinazolin-4-yl)-4-(6H-thieno[2,3-b]pyrrol-4-yl)-1H-pyrrole-2,5-dione] | < 100
NCC1CCN(c2nc(C3=C(c4c[nH]c5ccsc45)C(=O)NC3=O)c3ccccc3n2)CC1 [G.1.4] | 100 to 500
